Values quoted from earlier work, collected in US20110142834A1, “TREATMENT OF HEARING AND BALANCE IMPAIRMENTS USING COMPOUNDS HAVING ERYTHROPOIETIN ACTIVITY” (Edison Pharmaceuticals, Inc., priority 2008, published 2011).

## [H]/N=C(/N)N[C@H]1[C@H](O)[C@@H](O)[C@H](O[C@@H]2O[C@@H](C)[C@](O)(C=O)[C@H]2O[C@@H]2O[C@@H](CO)[C@H](O)[C@@H](O)[C@@H]2NC)[C@@H](N/C(N)=N\[H])[C@@H]1O [streptomycin]
1 gram per day
  incidence of vestibular impairment: 25%
2 grams daily for 60 to 120 days
  patients displaying some vestibular impairment: ~75%
